Among the test systems are CAL51; EFM19; HCC1187; HCC1954; HCC38; HS578T; MCF12A; MDAMB436; MDAMB468; SKBR3; UACC812; ZR7530.
What all share (test): GRmax, 72 h; higher = less effect;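 also: breast cell lines in 384-well plates, nine doses across a 10^4 range, Dye Drop imaging of viable cells vs DMSO and time-zero plates, GR 0 means no net growth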

For the molecule `Cc1cc(C(C)Nc2ccccc2)c2nc(N3CCOCC3)cc(=O)n2c1` (stereo unspecified) [TGX221] (max 10 µM), the “GRmax, 72 h” value turned out to be 0.91 GR with CAL51; 0.843 GR with EFM19; 0.46 GR in the assay with HCC1187; 0.961 GR in the assay on HCC1954; 0.952 GR with HCC38; 0.709 GR in the assay on HS578T. The “GRmax, 72 h” value with MCF12A is 1.05 GR; with MDAMB436, 0.722 GR; in the assay with MDAMB468, 0.723 GR; in the assay on SKBR3, 0.75 GR; in the assay on UACC812, 0.0432 GR; with ZR7530 it was 0.925 GR.
`CN(C)C/C=C/C(=O)Nc1ccc(C(=O)N2CCC[C@@H](Nc3ncc(Cl)c(-c4c[nH]c5ccccc45)n3)C2)cc1` [THZ531] (max 1 µM): the “GRmax, 72 h” value in the assay on CAL51 was 0.559 GR; with EFM19 it was -0.557 GR; in the assay with HCC1187, -0.852 GR; with HCC1954, -0.303 GR; in the assay on HCC38, -0.337 GR; in the assay with HS578T it was -0.246 GR. In addition, the “GRmax, 72 h” value in the assay on MCF12A is -0.0737 GR; in the assay with MDAMB436, 0.018 GR; with MDAMB468, -0.153 GR; in the assay on SKBR3, -0.619 GR; with UACC812, 0.556 GR; in the assay on ZR7530, -0.732 GR.
As for `CCC(=O)Nc1ccc(C(=O)Nc2ccc(Nc3ncc4c(n3)N(C)c3ccc(C)cc3C(=O)N4C)cc2)cc1` [FMF-03-145-1], the “GRmax, 72 h” value with CAL51 was 0.0325 GR; in the assay on EFM19, 0.175 GR; in the assay with HCC1187, -0.506 GR; with HCC1954, -0.181 GR; in the assay on HCC38, -0.376 GR; with HS578T it was -0.183 GR. Also, the “GRmax, 72 h” value in the assay with MCF12A is 0.0223 GR; in the assay with MDAMB436, -0.189 GR; in the assay on MDAMB468 it was -0.46 GR; with SKBR3, -0.0145 GR; with UACC812, -0.198 GR; in the assay with ZR7530, -0.0468 GR.
On to `CN(C)C/C=C/C(=O)Nc1ccc(O[C@@H]2CCC[C@@H](Nc3ncc(Cl)c(-c4c[nH]c5ccccc45)n3)C2)cc1` [BSJ-01-175] (max 10 µM), for which the “GRmax, 72 h” value in the assay with CAL51 is -0.368 GR; in the assay with EFM19, -0.322 GR; in the assay with HCC1187 it was -0.827 GR; with HCC1954, -0.652 GR; in the assay with HCC38 it was -0.564 GR; in the assay on HS578T, -0.694 GR. Moreover, the “GRmax, 72 h” value in the assay with MCF12A was -0.292 GR; with MDAMB436, -0.598 GR; with MDAMB468, -0.617 GR; with SKBR3, -0.769 GR; with UACC812, -0.92 GR; in the assay on ZR7530, -0.943 GR.
`CN1CCN(C(=O)c2ccc3cc(CCNc4ncnc5ccc(C#N)cc45)ccc3c2)CC1` [senexin b] (max 10 µM): the “GRmax, 72 h” value with CAL51 is 0.755 GR; in the assay with EFM19, 0.629 GR; with HCC1187, 1.62 GR; in the assay on HCC1954, 0.455 GR; in the assay with HCC38, 0.614 GR; in the assay on HS578T, 0.765 GR. Also, the “GRmax, 72 h” value in the assay with MCF12A is 0.776 GR; in the assay with MDAMB436, 0.429 GR; in the assay on MDAMB468 it was 0.132 GR; in the assay on SKBR3, 0.797 GR; with UACC812, 0.248 GR; with ZR7530 it was 0.0824 GR.
Consider `CC(=O)Nc1cccc(-n2c(=O)n(C3CC3)c(=O)c3c(Nc4ccc(I)cc4F)n(C)c(=O)c(C)c32)c1` (max 1 µM), for which the “GRmax, 72 h” value in the assay with CAL51 was found to be 0.706 GR; in the assay on EFM19, 0.952 GR; in the assay with HCC1187 it was 0.76 GR; in the assay with HCC1954, 0.229 GR; in the assay with HCC38, 0.185 GR; in the assay on HS578T, 0.193 GR. The “GRmax, 72 h” value with MCF12A is -0.0287 GR; in the assay with MDAMB436 it was 0.557 GR; in the assay on MDAMB468, 0.407 GR; in the assay with SKBR3, 0.683 GR; in the assay on UACC812, -0.119 GR; with ZR7530 it was 0.405 GR.
Regarding `CN(C)C/C=C/C(=O)Nc1ccc(C(=O)Nc2cccc(Nc3ncc(Cl)c(-c4c[nH]c5ccccc45)n3)c2)cc1` [THZ1] (max 1 µM), the “GRmax, 72 h” value in the assay with CAL51 is 0.107 GR; in the assay on EFM19, -0.293 GR; in the assay on HCC1187, -0.852 GR; with HCC1954, -0.507 GR; in the assay on HCC38 it was -0.568 GR; in the assay with HS578T, -0.371 GR. Further, the “GRmax, 72 h” value in the assay on MCF12A was -0.312 GR; with MDAMB436, -0.0798 GR; in the assay with MDAMB468 it was -0.377 GR; in the assay with SKBR3, -0.789 GR; in the assay with UACC812, -0.348 GR; in the assay with ZR7530, -0.638 GR.
For the molecule `CCNC(=O)c1noc(-c2cc(C(C)C)c(O)cc2O)c1-c1ccc(CN2CCOCC2)cc1` [Luminespib/NVP-AUY922] (max 1 µM), the “GRmax, 72 h” value was -0.339 GR in the assay with CAL51; 0.0263 GR with EFM19; -0.476 GR in the assay on HCC1187; -0.374 GR in the assay on HCC1954; -0.209 GR in the assay on HCC38; -0.114 GR in the assay with HS578T. Besides, the “GRmax, 72 h” value in the assay with MCF12A was -0.316 GR; in the assay with MDAMB436, -0.0492 GR; with MDAMB468 it was -0.174 GR; in the assay on SKBR3, -0.0766 GR; in the assay with UACC812 it was -0.521 GR; with ZR7530 it was 0.1 GR.

For the origin of these results see the supplement of paper PMC9663587.
